Experimental data from US9683231B2, “RNAi-based method of drug screening and characterization” (Massachusetts Institute of Technology, priority 2010, dated 2017).

Assays:
Bim = Bim expression level by western blot; assay type: cell-based, mouse; conditions: lymphoma cells treated for 6 or 9 hours
Protocol: 9b, Lymphoma cells were treated with SAHA or DAC for 6 or 9 hours. Bim expression level was analyzed by western blot.

[1] = test system: Eμ-Mycp19^Arf−/− lymphoma cells expressing shRNAs targeting the Bcl2 family, p53 and its activating kinases; assay: 29-shRNA GFP competition assay, resistance index (RI), clustering and K-nearest-neighbors; assay type: cell-based, mouse
[2] = test system: Eμ-Mycp19^Arf−/− mouse lymphoma cells; assay: Drug treatment and FACS viability (propidium iodide) to determine LD80-90; assay type: cell-based; conditions: concentration at which 80-90% of uninfected lymphoma cells were killed, lowest viability of 24, 48 and 72 h between 10% and 20%; for IC (80-90): Mus musculus, read-out: Concentration used (LD80-90)
[3] = test system: shTopoII, shTopoI or vector control-expressing cells; assay: Long-term survival assay, surviving cells 12 days after drug treatment; assay type: cell-based
Description: Identification and functional characterization of ill-defined genotoxic drugs. […] (3b) The shATM-Chk2-p53 response signature for apigenin (APG) and NSC3852 (NSC). (3c) The branching pattern for the 18 reference compounds plus APG and NSC. APG clusters with the TopoII poisons Dox and VP-16, whereas NSC clusters with the Topol poison CPT. (3d) A comparison of the shTopoI and shTopoII response signatures for APG and NSC3852 with response signatures derived from established Topol (CPT and CPT11) and TopoII poisons (Dox, Mito and VP-16). […] In each case, one million cells were plated before treatment. Data shown are mean±s.e.m. from three Independent experiments.

[4] = test system: lymphoma cells expressing shATM, shChk2 or shp53; assay: shATM-Chk2-p53 resistance signature; assay type: cell-based, mouse; conditions: suppression of ATM, Chk2 and p53
Protocol: (3d) A comparison of the shTopoI and shTopoII response signatures for APG and NSC3852 with response signatures derived from established Topol (CPT and CPT11) and TopoII poisons (Dox, Mito and VP-16). […] In each case, one million cells were plated before treatment.
Eμ-Mycp19^Arf−/− cells were counted and seeded at 1 million cells per ml in 48-well plates and treated with various concentrations of drugs. To approximate therapeutic situations in which drug dose decreases over time, half of the volume from each experiment was removed and replenished with fresh medium every 24 h. Cells were analyzed by fluorescence-activated cell sorting (FACS), with propidium iodide as a viability marker. LD80-90 of drugs are defined as concentrations at which the lowest viability reading out of three FACS time points (24, 48 and 72 h) is between 10% and 20%. After drug dose was determined, Eμ-Mycp19^Arf−/− cells were infected with retroviruses encoding shRNAs targeting particular genes. Individual infected cell populations were counted and seeded at 1 million cells per ml in 48-well plates and treated with drugs using the aforementioned protocol. At 72 h, treated and untreated cells were analyzed by flow cytometry. GFP percentages of live (PI-negative) cells were recorded and used to calculate relative resistance index.
To compare the relative level of chemoresistance and sensitization conferred by each gene knockdown, the concept of RI (see definition above) was introduced, to more accurately analyze the GFP competition results. The value of RI is defined as X. The biological meaning of this factor X is that in a mixture of uninfected and infected (knockdown) cells, the infected (knockdown) cells will be X-fold as likely to survive drug treatment when compared to uninfected cells. By this definition of X, if one out of n uninfected cells survives a drug treatment, then X our of n infected cells should survive. If the total number of uninfected and infected cells are defined as T and the GFP percentage of untreated population are defined as G1, then the number of surviving, uninfected cells (un) can be defined as n−un=T×(1−G1)×1/n, and the number of surviving, infected cells (in) can be defined as n−in=Tx G1×X/n. […] From this equation, it can be derived that X=(G2−G1×G2)/(G1−G1×G2). This equation was used in the studies to compute RI values.

γ-H2AX = assay: DNA damage response by western blot (γ-H2AX phosphorylation) in TopoI and TopoII knockdown cells; assay type: cell-based
[5] = test system: cells expressing shTopoI or shTopoII; assay: shTopoI and shTopoII response signatures; assay type: cell-based, mouse; conditions: FIG. 3d

Compound | levels of the proapoptotic BH3-only protein Bim (Bim) | log2RI ([1]; shRNA targeting Bim (Bim-dependence)) | effect of suppression of the Bim transcription regulator Chop on drug response ([1]; shRNA targeting Chop, FIG. 1d) | log2RI ([1]; shRNA targeting p53 (p53-independence)) | IC (80-90) [2] [µM] | long-term survival ([3]; TopoI deficiency) | shATM-Chk2-p53 resistance signature [4] | Concentration used (LD80-90) [2] [µM] | induction of DNA damage (γ-H2AX; TopoI-deficient cells) | shTopoI and shTopoII resistance and sensitivity pattern [5] | long-term survival ([3]; TopoII deficiency) | induction of DNA damage (γ-H2AX; TopoII-deficient cells)
O=C(CCCCCCC(=O)Nc1ccccc1)NO [Vorinostat, suberoylanilide hydroxamic acid] | increase | ≈ 2 | resistance | ≈ 0 | 0.2 |  |  |  |  |  |  | 
O=Nc1ccc(O)c2ncccc12 [NSC3852] |  |  |  |  |  | significantly protected | strong shATM-Chk2-p53 resistance signature | 1.7 | failed to induce DNA damage | characteristic pattern of resistance, similar to established TopoI poisons camptothecin and irinotecan |  | 
O=c1cc(-c2ccc(O)cc2)oc2cc(O)cc(O)c12 [Apigenin] |  |  |  |  | 0.1 |  | strong shATM-Chk2-p53 resistance signature |  |  | shTopoII resistance and shTopoI sensitivity | significant protection | failed to induce DNA damage
